# Data reported in US7579432B2, “Cyclic peptides as G-protein-coupled receptor antagonists” (Promics Pty Limited, priority 2001, dated 2009).
# Key:
# C5a-induced neutropenia = C5a-induced neutropenia after topical administration; format: in vivo; conditions: topical 10 mg/per rat in 50% propylene glycol and 50% distilled H2O; C5a 2 μg/kg i.v.
# Experimental: Female Wistar rats weighing between 200-250 g were used for in vivo testing of all C5a receptor antagonists. Rats were anaesthetized using the procedure described above, and transferred on to a heating pad to ensure that body temperature was maintained throughout the experiment. A catheter was inserted in the femoral vein, secured with a suture and flushed with 100 μL of heparinised saline. Rats were dosed with either the antagonist or vehicle, intravenously (1 mg kg^−1 in 200 μL saline containing 10% ethanol, 10 min prior to LPS challenge) or topically ([…] challenge) Rats were infused i.v via the femoral catheter with either LPS (1 mg kg^−1 i.v in 100 μL saline), recombinant human C5a (2 μgkg^−1 in 100 μL), or vehicle control 10 minutes after the iv administration or 60 min after topical administration, of antagonist or vehicle control. All agents infused i.v were injected over a 2 min period, and were followed with a subsequent injection of 100 μL of saline to ensure complete delivery of the drug.
# Whole blood samples (0.1 mL) were collected from the tail vein at the time of drug and LPS or C5a administration. […] The number of PMNs was counted on a haemocytometer. The number of cells at each time point was calculated as a percentage of the total number of cells at time zero, prior to complement challenge or LPS. […]
# [1] = system: lower limb ischemia-reperfusion (I/R); experiment: Bilateral hindlimb ischemia-reperfusion injury in rats
# Experimental: Rats were subjected to 2 hours bilateral hindlimb ischemia and 4 hours reperfusion. […] (1 mg/kg) i.v., either 10 min before ischemia or 10 min prior to reperfusion, or orally (10 mg/kg) 30 min prior to ischemia. Levels of circulating creatine kinase (CK), lactate dehydrogenase (LDH), alanine and aspartate aminotransferase (ALT/AST), creatinine, blood urea nitrogen (BUN), polymorphonuclear leukocytes (PMNs) and calcium (Ca^++) and potassium (K^+) ions were determined. These biochemical indices are known to reflect tissue or organ injury following I/R events. Other parameters measured included urinary protein levels, muscle edema and myeloperoxidase (MPO) concentrations in the lung, liver and muscle along with liver homogenate TNF-α concentrations.
# The study was performed in accordance with guidelines from the National Health & Medical Research Council of Australia, and the experimental protocol approved by the University of Queensland Animal Ethics Committee. Female Wistar rats weighing 250-300 g were fasted overnight before being anaesthetized with the i.p. injection of 6 mg/kg xylazine and 120 mg/kg ketamine. Anesthesia was maintained throughout the study by additional injections of ketamine. […] Bilateral hindlimb ischemia was then induced through the application of latex o-rings (marking rings; Hayes Veterinary Supplies, Brisbane, Australia) above the greater trochanter of each hind limb. Following 2 hours of ischemia, the latex rings were cut and removed and limbs allowed to reperfuse for 4 hours. Six experimental groups were used: • (a) sham-operated, • (b) ischemia-only, • (c) I/R-only, • (d) I/R+C5a antagonist (1 mg/kg, i.v.) administered 10 min prior to ischemia, • (e) I/R+C5a antagonist (10 mg/kg, p.o.) administered 30 min prior to ischemia, and • (f) I/R+C5a antagonist (1 mg/kg, i.v.) administered 10 min prior to reperfusion.
# All other groups underwent 2 hours of ischemia and 4 hours of reperfusion. Sham-operated, ischemia-only and I/R groups were infused with 7% ethanol/saline 10 min prior to ischemia, instead of drug. Blood was collected throughout the study from the tail vein, and serum or plasma was stored at either 4° C. or −20° C. for later biochemical assays. Urine was collected over the last hour of the study for the determination of urinary protein levels. At the completion of the experiment, rats were euthanased, and sections of the lungs, liver and gastrocnemius muscle removed and weighed for edema, neutrophil accumulation and liver TNF-α studies.
# All experimental results are expressed as means±standard error of the mean (SEM). Data analysis was performed using GraphPad Prism 3.0 software (GraphPad Software, Inc. USA). Statistical comparisons were made to sham-operated and I/R-only groups, using a one-way analysis of variance followed by a Dunnett comparison post-test analysis. Statistical significance was assessed at P<0.05.
# Circulating levels of creatine kinase (CK) were measured in serum samples taken immediately after ischemia, following 1, 2 and 3 hours reperfusion, and at the completion of the study using a […] kit (Sigma, St. Louis, USA) according to the manufacturer's instructions. Serum was also taken 10 min after tourniquet release for CK measurement in I/R-only animals. A 1:5 dilution was used for samples taken after 2 hours reperfusion.
# [2] = I/R + 1 mg/kg i.v. pre-ischemia, 4 hours reperfusion
# [3] = I/R + 1 mg/kg i.v. pre-reperfusion, 4 hours reperfusion
# [4] = I/R + 10 mg/kg p.o. pre-ischemia, 4 hours reperfusion
# [5] = i.v. 1 mg/kg just prior to reperfusion
# [6] = prior to ischemia, i.v. 1 mg/kg or orally 10 mg/kg
compound,measurement,setting,value
"CC(=O)N[C@@H](Cc1ccccc1)C(=O)N[C@H]1CCCNC(=O)[C@H](CCCNC(=N)N)NC(=O)[C@H](Cc2c[nH]c3ccccc23)NC(=O)[C@@H](CC2CCCCC2)NC(=O)[C@@H]2CCCN2C1=O [Compound 1, Ac-Phe-[Orn-Pro-dCha-Trp-Arg]]",neutropaenic effects of i.v. C5a,C5a-induced neutropenia,prevent the neutropaenic effects of C5a
same,Plasma Creatinine,[1]; [2],1.07 ± 0.07 mg/dL
same,Proteinuria,[1]; [2],36.4 ± 11.4 mg/dL
same,Serum BUN,[1]; [2],23.6 ± 1.6 mg/dL
same,Serum Ca++,[1]; [2],2.46 ± 0.04 mmol/L
same,Serum K+,[1]; [2],6.13 ± 0.18 mmol/L
same,Plasma Creatinine,[1]; [3],1.22 ± 0.05 mg/dL
same,Proteinuria,[1]; [3],41.2 ± 11.4 mg/dL
same,Serum BUN,[1]; [3],22.0 ± 2.2 mg/dL
same,Serum Ca++,[1]; [3],2.45 ± 0.10 mmol/L
same,Serum K+,[1]; [3],5.02 ± 0.32 mmol/L
same,Plasma Creatinine,[1]; [4],1.14 ± 0.14 mg/dL
same,Proteinuria,[1]; [4],45.8 ± 9.8 mg/dL
same,Serum BUN,[1]; [4],21.8 ± 2.1 mg/dL
same,Serum Ca++,[1]; [4],2.49 ± 0.04 mmol/L
same,Serum K+,[1]; [4],5.57 ± 0.58 mmol/L
same,"MPO activity in hindlimb muscles, lungs and liver vs I/R-only rats",[1]; all 3 drug-treated groups,significant decreases
same,circulating PMN numbers vs I/R-only rats,"[1]; all 3 drug-treated groups, 4 hours reperfusion",significantly decreased
same,adverse effects of the drug alone (changes in injury markers vs sham-operated animals),[1]; drug alone,no adverse effects
same,circulating creatine kinase (CK) levels vs I/R-only rats,[1]; [5],significant inhibition
same,circulating lactate dehydrogenase (LDH) levels vs I/R-only rats,[1]; [5],significant inhibition
same,circulating creatine kinase (CK) levels vs I/R-only rats,[1]; [6],significantly decreased levels
same,circulating lactate dehydrogenase (LDH) levels vs I/R-only rats,[1]; [6],significantly decreased levels
